Reference: patent US8835420B2, “Azaindole derivatives” (Takeda Pharmaceutical Company Limited, priority 2012, dated 2014)

Target: T1, PI3Kδ (recombinant GST-tagged PIK3CD co-expressed with PIK3R1, p85α) (Homo sapiens, UniProt O00329)
T1 construct: The protein is full length and co-expressed with untagged PIK3R1; GST; purchased Invitrogen PV5274
Assay: PI3Kδ inhibition, modified PIK3CD Adapta TR-FRET kinase assay
Assay type: biochemical
Conditions: 2 μM ATP, 50 μM PIP2, 1 hour at room temperature, pIC50 = -log(IC50 in M)
Protocol: The activity of compounds as PI3Kδ inhibitors may be determined by a variety of methods, including in vitro and in vivo methods. The following in vitro assay measures a test compound's ability to inhibit PI3Kδ-mediated phosphorylation of PIP2 and ATP.
Recombinant GST-tagged PIK3CD is purchased from Invitrogen (Part Number: PV5274). The protein is full length and co-expressed with untagged PIK3R1, phosphoinositide-3-kinase regulatory subunit 1 (p85α). The protein is stored at −20° C. in 50 mM TRIS (pH 7.5), 150 mM NaCl, 0.5 mM EDTA, 0.02% Triton® X-100, 2 mM DTT, and 50% glycerol.
A modified PIK3CD Adapta® assay (Invitrogen, Carlsbad, Calif.) is used to measure PI3Kδ inhibition of the example compounds. The assay has two phases. In the first phase, kinase reaction components, which include the enzyme (PIK3CD), substrates (PIP2, ATP), test compound (inhibitor), and assay buffer are added to each well, and the reaction is allowed to incubate for a pre-determined period of time. After reaction, a detection solution composed of a Eu (europium)-labeled anti-ADP antibody, Alexa Fluor® 647-labeled ADP tracer, and EDTA (to stop the kinase reaction) is added to each assay well. In this second phase, ADP formed by the kinase reaction displaces the Alexa Fluor® 647-labeled ADP tracer from the antibody, resulting in a decrease in time-resolved fluorescence resonance energy transfer (TR-FRET) signal. In the presence of the inhibitor, the amount of ADP formed by the kinase reaction is reduced, and the resulting intact antibody-tracer interaction maintains a high TR-FRET signal.
The assay uses black Greiner® 384-well plates (784076). The reaction buffer contains 50 mM Hepes (pH 7.5), 3 mM MgCl2, 1 mM EGTA, 100 mM NaCl, 0.03% CHAPS; 2 mM DTT is added fresh prior to each experiment. Enzyme (4 μL, estimated 1.5 nM in buffer) is first added to the wells of the plate. Next, test compounds (2 μL) from a source plate (5% dilution plate) are introduced into the wells. The final DMSO concentration in each assay well is 1%. The dilution plate contains 5% DMSO in the bottom half of columns 23 and 24, which serve as negative (non-inhibited) controls; the top half contains a known inhibitor concentration (positive control) that gives >98% inhibition of the kinase reaction. Other wells contain test compounds serially diluted across the plate 11 times for a total of 12 data points. The kinase reactions are carried out at room temperature and are initiated by the addition of 4 μL of solution containing 2 μM ATP and 50 μM PIP2. Each reaction is stopped after 1 hour±10 minutes via addition of 10 μL stop solution, which contains a final assay concentration of 3 nM Alexa Fluor® 647-labeled ADP tracer, 2 nM Eu-anti-ADP Antibody, and 10 mM EDTA. After allowing the solutions to equilibrate for 30±10 minutes, a PHERAstar plate reader is used to excite the Eu donor (at 337 nm) and to detect emission from the Alexa Fluor® 647 at 665 nm. This emission signal is referenced or “ratioed” to the emission from Eu at 620 nm. The emission ratio (665 nm/620 nm) from each well is collected and converted to percent conversion using a standard curve for the assay conditions: % conversion=B*(C+A−emission ratio)/(emission ratio−C), where “A” and “C” are the maximum and minimum values of the emission ratio obtained from the standard curve of emission ratio vs. % conversion (ATP-ADP); “B” is the emission ratio corresponding to the % conversion at the EC50 value for the ADP Tracer—Eu anti-ADP antibody complex. The percent inhibition for a given inhibitor concentration is computed from % conversion for the reaction and for the positive and negative controls. Corresponding IC50 values are calculated by non-linear curve fitting of the compound concentrations and values of percent inhibition to the standard IC50 equation and are reported as pIC50, i.e., −log(IC50), where IC50 is molar concentration at 50% inhibition.

T1 sequence (O00329 whole entry): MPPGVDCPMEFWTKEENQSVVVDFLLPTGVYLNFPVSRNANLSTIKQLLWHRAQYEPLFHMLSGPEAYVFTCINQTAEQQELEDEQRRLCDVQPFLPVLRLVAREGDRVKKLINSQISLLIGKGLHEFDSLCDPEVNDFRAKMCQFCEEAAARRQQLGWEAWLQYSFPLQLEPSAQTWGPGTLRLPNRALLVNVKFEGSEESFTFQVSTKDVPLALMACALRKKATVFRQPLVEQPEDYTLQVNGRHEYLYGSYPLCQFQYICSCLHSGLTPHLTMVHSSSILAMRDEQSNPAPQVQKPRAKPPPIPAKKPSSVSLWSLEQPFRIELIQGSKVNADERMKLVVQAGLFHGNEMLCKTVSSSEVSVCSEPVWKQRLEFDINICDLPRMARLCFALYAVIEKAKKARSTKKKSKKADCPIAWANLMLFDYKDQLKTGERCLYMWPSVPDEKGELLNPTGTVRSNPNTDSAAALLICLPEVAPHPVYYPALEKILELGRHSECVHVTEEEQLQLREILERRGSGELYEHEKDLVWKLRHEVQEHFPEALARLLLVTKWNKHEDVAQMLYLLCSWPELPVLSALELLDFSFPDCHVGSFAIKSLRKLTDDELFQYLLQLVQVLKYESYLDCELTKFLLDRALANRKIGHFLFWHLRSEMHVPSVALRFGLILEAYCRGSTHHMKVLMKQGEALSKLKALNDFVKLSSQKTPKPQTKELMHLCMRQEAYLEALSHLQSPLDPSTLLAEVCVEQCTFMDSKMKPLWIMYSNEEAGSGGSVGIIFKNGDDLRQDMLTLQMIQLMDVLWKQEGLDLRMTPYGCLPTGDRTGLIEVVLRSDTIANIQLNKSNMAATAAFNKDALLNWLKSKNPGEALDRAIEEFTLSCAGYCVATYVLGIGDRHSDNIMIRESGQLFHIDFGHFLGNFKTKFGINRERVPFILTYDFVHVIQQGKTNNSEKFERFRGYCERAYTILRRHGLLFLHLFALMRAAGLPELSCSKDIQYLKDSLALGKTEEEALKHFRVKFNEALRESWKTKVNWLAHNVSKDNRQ
T1 sequence (P27986 whole entry partner): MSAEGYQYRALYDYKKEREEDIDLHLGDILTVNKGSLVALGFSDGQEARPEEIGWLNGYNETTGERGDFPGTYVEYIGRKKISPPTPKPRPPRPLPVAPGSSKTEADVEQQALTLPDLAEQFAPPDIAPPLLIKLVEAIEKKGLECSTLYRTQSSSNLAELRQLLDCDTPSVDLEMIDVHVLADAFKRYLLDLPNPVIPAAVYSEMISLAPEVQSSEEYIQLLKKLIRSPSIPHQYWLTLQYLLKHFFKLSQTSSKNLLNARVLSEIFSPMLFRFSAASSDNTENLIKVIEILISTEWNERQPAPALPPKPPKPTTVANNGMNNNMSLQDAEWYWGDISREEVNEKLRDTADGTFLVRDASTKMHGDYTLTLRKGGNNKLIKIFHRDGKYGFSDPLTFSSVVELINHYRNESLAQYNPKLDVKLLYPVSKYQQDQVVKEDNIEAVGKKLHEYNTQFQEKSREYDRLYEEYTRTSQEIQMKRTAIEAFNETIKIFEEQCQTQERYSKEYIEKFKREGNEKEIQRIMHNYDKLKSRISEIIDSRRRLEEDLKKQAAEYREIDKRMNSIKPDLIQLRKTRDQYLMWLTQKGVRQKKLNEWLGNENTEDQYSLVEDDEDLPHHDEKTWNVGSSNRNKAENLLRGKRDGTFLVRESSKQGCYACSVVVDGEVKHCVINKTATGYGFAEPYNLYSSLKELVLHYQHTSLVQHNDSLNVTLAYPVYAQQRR

| IC50 | SMILES |
| --- | --- |
| 126 nM | C[C@H](Nc1nc(N)ncc1Cl)c1nc2ccn(C)c2cc1-c1ccnn1C [Example 1, (S)-5-Chloro-N^4-(1-(1-methyl-6-(1-methyl-1H-pyrazol-5-yl)-1H-pyrrolo[3,2-b]pyridin-5-yl)ethyl)pyrimidine-2,4-diamine] |
| 2.51 nM | C[C@H](Nc1nc(N)nc(N)c1C#N)c1nc2ccn(C)c2cc1-c1ccnn1C [Example 2, (S)-2,4-Diamino-6-((1-(1-methyl-6-(1-methyl-1H-pyrazol-5-yl)-1H-pyrrolo[3,2-b]pyridin-5-yl)ethyl)amino)pyrimidine-5-carbonitrile] |
| 1.58 nM | Cc1nc(N)nc(N[C@@H](C)c2nc3ccn(C)c3cc2-c2ccnn2C)c1C#N [Example 3, (S)-2-Amino-4-methyl-6-((1-(1-methyl-6-(1-methyl-1H-pyrazol-5-yl)-1H-pyrrolo[3,2-b]pyridin-5-yl)ethyl)amino)pyrimidine-5-carbonitrile] |
| 63.1 nM | C[C@H](Nc1nc(N)ncc1C#N)c1nc2ccn(C)c2cc1-c1ccnn1C [Example 4, (S)-2-Amino-4-((1-(1-methyl-6-(1-methyl-1H-pyrazol-5-yl)-1H-pyrrolo[3,2-b]pyridin-5-yl)ethyl)amino)pyrimidine-5-carbonitrile] |
| 126 nM | C[C@H](Nc1nc(N)ncc1Cl)c1nc2ccn(C)c2cc1N1CCOCC1 [Example 5, (S)-5-Chloro-N^4-(1-(1-methyl-6-morpholino-1H-pyrrolo[3,2-b]pyridin-5-yl)ethyl)pyrimidine-2,4-diamine] |
| 63.1 nM | Cc1nc(N)c(C#N)c(NC(C)c2nc3ccn(C)c3cc2N2CCOCC2)n1 (stereo not drawn) [Example 6, 4-Amino-2-methyl-6-((1-(1-methyl-6-morpholino-1H-pyrrolo[3,2-b]pyridin-5-yl)ethyl)amino)pyrimidine-5-carbonitrile] |
| 79400 nM | C[C@H](Nc1nc(N)ncc1F)c1nc2ccn(C)c2cc1-c1ccnn1C [Example 7, (S)-5-Fluoro-N^4-(1-(1-methyl-6-(1-methyl-1H-pyrazol-5-yl)-1H-pyrrolo[3,2-b]pyridin-5-yl)ethyl)pyrimidine-2,4-diamine] |
| 1000 nM | C[C@H](Nc1nc(O)nc(N)c1C#N)c1nc2ccn(C)c2cc1N1CCOCC1 [Example 8, (S)-4-Amino-2-hydroxy-6-((1-(1-methyl-6-morpholino-1H-pyrrolo[3,2-b]pyridin-5-yl)ethyl)amino)pyrimidine-5-carbonitrile] |
| 0.794 nM | Cc1nc(N)nc(N[C@@H](C)c2nc3ccn(C)c3cc2N2CCOCC2)c1C#N [Example 9, (S)-2-Amino-4-methyl-6-((1-(1-methyl-6-morpholino-1H-pyrrolo[3,2-b]pyridin-5-yl)ethyl)amino)pyrimidine-5-carbonitrile] |
| < 2.51 nM | C[C@H](Nc1nc(N)nc(N)c1C#N)c1nc2ccn(C)c2cc1N1CCOCC1 [Example 10, (S)-2,4-Diamino-6-((1-(1-methyl-6-morpholino-1H-pyrrolo[3,2-b]pyridin-5-yl)ethyl)amino)pyrimidine-5-carbonitrile] |
| 1260 nM | C[C@H](Nc1nc(O)nc(N)c1C#N)c1nc2ccn(C)c2cc1-c1ccnn1C [Example 11, (S)-4-Amino-2-hydroxy-6-((1-(1-methyl-6-(1-methyl-1H-pyrazol-5-yl)-1H-pyrrolo[3,2-b]pyridin-5-yl)ethyl)amino)pyrimidine-5-carbonitrile] |
| 1.58 nM | C[C@H](Nc1nc(N)nc(N)c1C#N)c1nc2ccn(C)c2cc1-c1ccccn1 [Example 12, (S)-2,4-Diamino-6-((1-(1-methyl-6-(pyridin-2-yl)-1H-pyrrolo[3,2-b]pyridin-5-yl)ethyl)amino)pyrimidine-5-carbonitrile] |
| 2 nM | C[C@H](Nc1nc(N)nc(N)c1C#N)c1nc2ccn(C)c2cc1-c1ccn[nH]1 [Example 13, (S)-2,4-Diamino-6-((1-(1-methyl-6-(1H-pyrazol-5-yl)-1H-pyrrolo[3,2-b]pyridin-5-yl)ethyl)amino)pyrimidine-5-carbonitrile] |
| 7.94 nM | Cc1n[nH]c(C)c1-c1cc2c(ccn2C)nc1[C@H](C)Nc1nc(N)nc(N)c1C#N [Example 14, 2,4-Diamino-6-(((1S)-1-(6-(3,5-dimethyl-1H-pyrazol-4-yl)-1-methyl-1H-pyrrolo[3,2-b]pyridin-5-yl)ethyl)amino)pyrimidine-5-carbonitrile] |
| < 1 nM | C[C@H](Nc1nc(N)nc(N)c1C#N)c1nc2ccn(C)c2cc1-c1ccnc(O)c1 [Example 15, (S)-2,4-Diamino-6-((1-(6-(2-hydroxypyridin-4-yl)-1-methyl-1H-pyrrolo[3,2-b]pyridin-5-yl)ethyl)amino)pyrimidine-5-carbonitrile] |
| 7.94 nM | C[C@H](Nc1nc(N)nc2[nH]cnc12)c1nc2ccn(C)c2cc1-c1ccnn1C [Example 16, (S)—N^6-(1-(1-Methyl-6-(1-methyl-1H-pyrazol-5-yl)-1H-pyrrolo[3,2-b]pyridin-5-yl)ethyl)-9H-purine-2,6-diamine] |
| < 1 nM | C[C@H](Nc1nc(N)nc(N)c1C#N)c1nc2ccn(C)c2cc1-c1cscn1 [Example 17, (S)-2,4-Diamino-6-((1-(1-methyl-6-(thiazol-4-yl)-1H-pyrrolo[3,2-b]pyridin-5-yl)ethyl)amino)pyrimidine-5-carbonitrile] |
| 501 nM | C[C@H](Nc1nc(N)nc2[nH]ncc12)c1nc2ccn(C)c2cc1-c1ccnn1C [Example 18, (S)—N^4-(1-(1-Methyl-6-(1-methyl-1H-pyrazol-5-yl)-1H-pyrrolo[3,2-b]pyridin-5-yl)ethyl)-1H-pyrazolo[3,4-d]pyrimidine-4,6-diamine] |
| 5.01 nM | Cc1n[nH]cc1-c1cc2c(ccn2C)nc1[C@H](C)Nc1nc(N)nc(C)c1C#N [Example 19, (S)-2-Amino-4-methyl-6-((1-(1-methyl-6-(3-methyl-1H-pyrazol-4-yl)-1H-pyrrolo[3,2-b]pyridin-5-yl)ethyl)amino)pyrimidine-5-carbonitrile] |
| 5.01 nM | C[C@H](Nc1nc(N)nc(N)c1C#N)c1nc2ccn(C)c2cc1N1CCC(C)(O)CC1 [Example 21, (S)-2,4-Diamino-6-((1-(6-(4-hydroxy-4-methylpiperidin-1-yl)-1-methyl-1H-pyrrolo[3,2-b]pyridin-5-yl)ethyl)amino)pyrimidine-5-carbonitrile] |
| 2000 nM | C[C@@H](Nc1nc(N)nc(N)c1C#N)c1nc2ccn(C)c2cc1N1CCC(C)(O)CC1 [Example 22, (R)-2,4-Diamino-6-((1-(6-(4-hydroxy-4-methylpiperidin-1-yl)-1-methyl-1H-pyrrolo[3,2-b]pyridin-5-yl)ethyl)amino)pyrimidine-5-carbonitrile] |
| < 1 nM | Cc1nc(N)nc(N[C@@H](C)c2nc3ccn(C)c3cc2-c2ccnc(O)c2)c1C#N [Example 23, (S)-2-Amino-4-((1-(6-(2-hydroxypyridin-4-yl)-1-methyl-1H-pyrrolo[3,2-b]pyridin-5-yl)ethyl)amino)-6-methylpyrimidine-5-carbonitrile] |
| < 1 nM | Cc1nc(N)nc(N[C@@H](C)c2nc3ccn(C)c3cc2-c2ccccn2)c1C#N [Example 24, (S)-2-Amino-4-methyl-6-((1-(1-methyl-6-(pyridin-2-yl)-1H-pyrrolo[3,2-b]pyridin-5-yl)ethyl)amino)pyrimidine-5-carbonitrile] |
| < 1.26 nM | Cc1nc(N)nc(N[C@@H](C)c2nc3ccn(C)c3cc2C2CCOCC2)c1C#N [Example 25, (S)-2-Amino-4-methyl-6-((1-(1-methyl-6-(tetrahydro-2H-pyran-4-yl)-1H-pyrrolo[3,2-b]pyridin-5-yl)ethyl)amino)pyrimidine-5-carbonitrile] |
